Measurements published in patent publication US6075121A, “Modified peptide and peptide libraries with protease resistance, derivatives thereof and methods of producing and screening such” (Chiron Corporation, priority 1995, dated 2000).
Residues, ends and D or L forms follow the SMILES beside them. *: point of attachment. Fmoc = O=C(OCC1c2ccccc2-c2ccccc21)*

Experiments:
[1] = system: antiserum S259-6 (epitope DFLEKI); test: Antibody binding of peptides and peptoids on pins, serum S259-6; design: key: A `P` represents a peptide sequence which gave the highest 6-8 signals; a `*` represents a peptoid sequence which scored in the top 6-10; conditions: serum S259-6, epitope DFLEKI
Method: (§1) Peptoids and peptides were prepared on the pins and tested under standard conditions. The assay is best interpreted qualitatively, and the chart below gives a summary of data from three antisera tested. They are representative for the twelve sera which gave signals with both the peptoids and peptides. A `P` represents a peptide sequence which gave the highest 6-8 signals. Likewise, a `*` represents a peptoid sequence which scored in the top 6-10. For the three sera tested, 33/120 sequences are represented which lends support to the premise that there is selective binding shown by the antibody.

[2] = system: bacterial dihydrofolate reductases; conditions: stated without a test; cited from earlier work
[3] = system: antiserum S259-8 (epitope KDFL); test: Antibody binding of peptides and peptoids on pins, serum S259-8; design: key: A `P` represents a peptide sequence which gave the highest 6-8 signals; a `*` represents a peptoid sequence which scored in the top 6-10; conditions: serum S259-8, epitope KDFL; for antibody binding signal rank, peptide sequence: peptide on pins; for antibody binding signal rank, peptoid sequence: peptoid on pins
Method: as §1

trypsin [4] = molecular target: T1, trypsin (Bos taurus, UniProt P00760); test: Proteolysis of peptoids and peptides by trypsin; type: in vitro ADME
T1 construct: gene PRSS1
T1 sequence (P00760 24-246): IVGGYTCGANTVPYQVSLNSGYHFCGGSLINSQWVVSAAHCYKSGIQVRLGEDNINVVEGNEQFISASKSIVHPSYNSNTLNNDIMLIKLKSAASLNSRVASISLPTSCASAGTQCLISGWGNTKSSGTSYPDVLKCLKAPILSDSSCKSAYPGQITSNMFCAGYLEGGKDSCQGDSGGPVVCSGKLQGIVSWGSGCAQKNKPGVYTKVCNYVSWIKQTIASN
Source text: (§2) Both compounds were purified to homogeneity by HPLC.

chymotrypsin [5] = molecular target: chymotrypsin (Bos taurus, UniProt P00766); test: Proteolysis of peptoids and peptides by chymotrypsin; type: in vitro ADME
Source text: as §2

[6] = molecular target: T2, dihydrofolate reductase (DHFR) found in Pneumocystis carinii (Pneumocystis carinii, UniProt P16184); conditions: stated without a test; cited from earlier work
T2 sequence (P16184 1-206): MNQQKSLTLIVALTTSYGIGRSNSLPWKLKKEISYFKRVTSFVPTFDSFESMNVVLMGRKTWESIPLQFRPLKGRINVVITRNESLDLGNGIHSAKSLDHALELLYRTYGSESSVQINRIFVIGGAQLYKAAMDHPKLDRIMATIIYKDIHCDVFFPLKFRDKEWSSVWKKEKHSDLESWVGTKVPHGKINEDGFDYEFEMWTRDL

trypsin [7] = system: T3, trypsin; test: Proteolysis of peptoids and peptides by trypsin; type: in vitro ADME; conditions: trypsin (isolated protease) in Tris buffer, trypsin, 37° C., pH 8.0, read-out: % Area at 280 nm Remaining of Parent Peak by RP-HPLC
T3 construct: gene PRSS1
Source text: as §2

chymotrypsin [8] = test: Proteolysis of peptoids and peptides by chymotrypsin; type: in vitro ADME; conditions: chymotrypsin (isolated protease) in Tris buffer, chymotrypsin, 37° C., pH 8.0, read-out: % Area at 280 nm Remaining of Parent Peak by RP-HPLC
Source text: as §2

Compound	antibody binding signal rank, peptide sequence [1]	antibody binding signal rank, peptide sequence [3]	other results
COc1cc(Cc2cnc(N)nc2N)cc(OC)c1OC [Trimethoprim]			inhibition of dihydrofolate reductases [2]: potent inhibitor
KLSFD		P	antibody binding signal rank, peptoid sequence [3]: *
CC(C)C[C@H](NC(=O)OCC1c2ccccc2-c2ccccc21)C(=O)N[C@@H](CC(=O)O)C(=O)N[C@@H](Cc1ccccc1)C(=O)N[C@@H](CO)C(=O)N[C@@H](CCCCN)C(=O)NCC(=O)O [PEPTIDE, FMOC-LDFSKG-OH] (Fmoc-LDFSKG-OH)			number of places cleaved by trypsin (trypsin [4]): only one place; time to complete cleavage by trypsin (trypsin [4]; 37° C., pH 8.0): ≤ 5 min; number of chymotrypsin cleavage sites (chymotrypsin [5]): at least two cleavage sites; cleavage completed at the preferential chymotrypsin site (chymotrypsin [5]; after 10 minutes): ~ 60%; cleavage at the second chymotrypsin site (chymotrypsin [5]; after three hours): not completely cleaved
KSDFL		P	
SDFLK	P	P	antibody binding signal rank, peptoid sequence [3]: *
DFLKS		P	
COc1cc(Cc2cnc(N)nc2N)cc(OC)c1NC(=O)CCC(=O)O [2,4-diamino-5-[3,5-di-methoxy-4-(3-hydrocarboxy-1-oxopropylamino)benzyl]pyrimidine]			inhibitory activity on DHFR [6]: inhibitory activity specific for the enzyme dihydrofolate reductase (DHFR) found in Pneumocystis carinii
DKFSL	P		
CC(C)CN(CC(=O)N(CC(=O)O)CC(=O)N(CC(=O)N(CCO)CC(=O)N(CCN)CC(=O)NCC(=O)O)Cc1ccccc1)C(=O)OCC1c2ccccc2-c2ccccc21 [PEPTOID, FMOC-L*D*F*S*K*G-OH]			change of substrate under proteolysis conditions (trypsin [4]; all reaction conditions (trypsin, chymotrypsin, control)): remained unchanged; remaining at 5 min, 0.48 mg/mL (trypsin [7]; 5 min): 100%; remaining at 10 min, 0.48 mg/mL (trypsin [7]; 10 min): 100%; remaining at 3 h, 0.48 mg/mL (trypsin [7]; 3 hours): 100%; remaining at 5 min, 0.48 mg/mL (chymotrypsin [8]; 5 min): 100%; remaining at 10 min, 0.48 mg/mL (chymotrypsin [8]; 10 min): 100%; remaining at 3 h, 0.48 mg/mL (chymotrypsin [8]; 3 hours): 100%
LKSFD		P	antibody binding signal rank, peptoid sequence [3]: *
DFLSK	P	P	

Continued, in another order:

antibody binding signal rank, peptide sequence [1]	antibody binding signal rank, peptide sequence [3]	Compound	other results
P		KFLDS	
	P	SKDFL	
P		LFKDS	
P		LKFDS	
P	P	KDFLS	
P		FSKLD	
	P	SFLDK	
